Measured values as given in ChEMBL document CHEMBL4507268 (2021).

Experiments:
Conditions in all cases: Compound concentration 1.0 uM
[1] = biological target: Testis-specific serine/threonine-protein kinase 2 (Homo sapiens) (UniProt Q96PF2)
[2] = biological target: BDNF/NT-3 growth factors receptor (Homo sapiens) (UniProt Q16620)
[3] = biological target: Tau-tubulin kinase 2 (Homo sapiens) (UniProt Q6IQ55)
[4] = biological target: Ephrin type-A receptor 5 (Homo sapiens) (UniProt P54756)
[5] = biological target: Tyrosine-protein kinase Lyn (Homo sapiens) (UniProt P07948)
[6] = biological target: Serine/threonine-protein kinase PAK 5 (Homo sapiens) (UniProt Q9P286)
[7] = biological target: Cyclin-dependent kinase 5/CDK5 activator 1 (Homo sapiens) (UniProt Q00535+Q15078)
[8] = biological target: Rho-associated protein kinase 1 (Homo sapiens) (UniProt Q13464)
Chain of Rho-associated protein kinase 1 (Homo sapiens) (Q13464 2-1354 limits assumed): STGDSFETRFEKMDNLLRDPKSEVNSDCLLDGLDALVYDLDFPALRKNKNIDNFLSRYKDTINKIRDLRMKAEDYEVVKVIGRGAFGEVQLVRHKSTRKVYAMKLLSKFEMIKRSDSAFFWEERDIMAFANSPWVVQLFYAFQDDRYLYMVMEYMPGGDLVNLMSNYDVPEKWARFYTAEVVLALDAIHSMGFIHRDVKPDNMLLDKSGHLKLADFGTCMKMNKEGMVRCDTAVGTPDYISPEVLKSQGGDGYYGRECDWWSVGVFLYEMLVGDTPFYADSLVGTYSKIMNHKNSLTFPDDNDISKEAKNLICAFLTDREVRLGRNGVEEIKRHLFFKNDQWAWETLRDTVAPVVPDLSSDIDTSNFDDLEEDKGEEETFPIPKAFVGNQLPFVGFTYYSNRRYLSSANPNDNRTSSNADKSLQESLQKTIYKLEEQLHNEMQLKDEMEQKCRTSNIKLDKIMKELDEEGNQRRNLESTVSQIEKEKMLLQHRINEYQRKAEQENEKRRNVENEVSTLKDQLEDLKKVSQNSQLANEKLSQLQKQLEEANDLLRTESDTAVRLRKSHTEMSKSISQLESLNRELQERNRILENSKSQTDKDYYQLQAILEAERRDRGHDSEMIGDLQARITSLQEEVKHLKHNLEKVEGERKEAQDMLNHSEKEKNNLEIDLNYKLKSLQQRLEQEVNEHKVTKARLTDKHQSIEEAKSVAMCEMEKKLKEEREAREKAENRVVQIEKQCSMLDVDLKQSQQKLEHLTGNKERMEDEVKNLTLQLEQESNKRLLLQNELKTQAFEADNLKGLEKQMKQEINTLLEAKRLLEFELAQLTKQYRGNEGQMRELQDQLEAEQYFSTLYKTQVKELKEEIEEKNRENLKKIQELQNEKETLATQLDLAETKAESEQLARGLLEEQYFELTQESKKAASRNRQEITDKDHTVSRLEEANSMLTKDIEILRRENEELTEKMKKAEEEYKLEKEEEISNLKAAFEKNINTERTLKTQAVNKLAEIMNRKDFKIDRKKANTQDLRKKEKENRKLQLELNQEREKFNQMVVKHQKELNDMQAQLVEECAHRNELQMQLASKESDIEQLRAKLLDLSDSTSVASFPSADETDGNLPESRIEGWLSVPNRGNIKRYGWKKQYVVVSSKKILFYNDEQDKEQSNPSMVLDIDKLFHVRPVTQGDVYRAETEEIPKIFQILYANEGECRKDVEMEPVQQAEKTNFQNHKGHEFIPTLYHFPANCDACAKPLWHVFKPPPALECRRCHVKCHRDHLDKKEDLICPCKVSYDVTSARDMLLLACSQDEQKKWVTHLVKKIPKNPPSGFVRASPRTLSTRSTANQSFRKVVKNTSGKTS

[9] = biological target: Tribbles homolog 2 (Homo sapiens) (UniProt Q92519)
[10] = biological target: CDK12/Cyclin K (Homo sapiens) (UniProt O75909+Q9NYV4)
[11] = biological target: Rho-associated protein kinase 2 (Homo sapiens) (UniProt O75116)
[12] = biological target: T1, Myosin light chain kinase (Homo sapiens) (UniProt Q32MK0)
T1 sequence (whole entry): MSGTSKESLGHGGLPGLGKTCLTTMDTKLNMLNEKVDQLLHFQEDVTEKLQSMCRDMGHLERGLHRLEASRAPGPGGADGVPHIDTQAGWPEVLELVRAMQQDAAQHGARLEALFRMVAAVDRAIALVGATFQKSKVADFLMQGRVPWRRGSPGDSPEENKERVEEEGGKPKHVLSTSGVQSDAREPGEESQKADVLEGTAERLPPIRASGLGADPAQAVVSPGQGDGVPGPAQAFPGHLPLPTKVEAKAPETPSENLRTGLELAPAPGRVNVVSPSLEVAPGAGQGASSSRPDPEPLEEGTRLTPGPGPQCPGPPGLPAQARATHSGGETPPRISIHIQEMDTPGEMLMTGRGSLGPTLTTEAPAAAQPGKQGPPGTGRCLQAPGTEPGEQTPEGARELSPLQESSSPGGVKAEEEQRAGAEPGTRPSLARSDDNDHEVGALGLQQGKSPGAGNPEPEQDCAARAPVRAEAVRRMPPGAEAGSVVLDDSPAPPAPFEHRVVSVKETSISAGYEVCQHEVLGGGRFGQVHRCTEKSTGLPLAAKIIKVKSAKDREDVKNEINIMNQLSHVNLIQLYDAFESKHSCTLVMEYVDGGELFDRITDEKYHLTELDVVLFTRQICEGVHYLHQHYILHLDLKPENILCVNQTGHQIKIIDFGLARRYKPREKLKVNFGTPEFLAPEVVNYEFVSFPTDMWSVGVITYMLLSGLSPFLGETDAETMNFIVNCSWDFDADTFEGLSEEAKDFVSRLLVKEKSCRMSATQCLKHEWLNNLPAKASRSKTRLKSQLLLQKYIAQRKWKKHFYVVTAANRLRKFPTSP

[13] = biological target: G protein-coupled receptor kinase 5 (Homo sapiens) (UniProt P34947)
Chain of G protein-coupled receptor kinase 5 (Homo sapiens) (P34947 whole entry, looked up): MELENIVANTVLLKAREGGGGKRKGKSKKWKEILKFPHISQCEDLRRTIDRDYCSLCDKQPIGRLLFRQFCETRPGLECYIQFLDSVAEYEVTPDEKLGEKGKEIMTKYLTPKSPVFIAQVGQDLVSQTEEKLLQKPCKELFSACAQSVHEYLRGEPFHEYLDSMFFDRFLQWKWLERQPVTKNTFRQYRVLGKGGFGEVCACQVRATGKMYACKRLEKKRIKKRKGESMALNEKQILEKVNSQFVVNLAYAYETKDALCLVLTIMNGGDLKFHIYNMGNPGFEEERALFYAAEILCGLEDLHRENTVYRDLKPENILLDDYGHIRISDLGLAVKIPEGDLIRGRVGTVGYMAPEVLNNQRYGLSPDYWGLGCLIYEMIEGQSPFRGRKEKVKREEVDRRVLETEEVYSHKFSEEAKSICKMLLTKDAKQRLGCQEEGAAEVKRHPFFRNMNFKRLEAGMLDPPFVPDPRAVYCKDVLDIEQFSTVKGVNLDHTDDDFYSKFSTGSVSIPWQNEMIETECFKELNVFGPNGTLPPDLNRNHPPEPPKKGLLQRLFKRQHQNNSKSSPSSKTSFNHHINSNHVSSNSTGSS

[14] = biological target: Receptor-type tyrosine-protein kinase FLT3 (Homo sapiens) (UniProt P36888)
Chain of Receptor-type tyrosine-protein kinase FLT3 (Homo sapiens) (P36888 whole entry): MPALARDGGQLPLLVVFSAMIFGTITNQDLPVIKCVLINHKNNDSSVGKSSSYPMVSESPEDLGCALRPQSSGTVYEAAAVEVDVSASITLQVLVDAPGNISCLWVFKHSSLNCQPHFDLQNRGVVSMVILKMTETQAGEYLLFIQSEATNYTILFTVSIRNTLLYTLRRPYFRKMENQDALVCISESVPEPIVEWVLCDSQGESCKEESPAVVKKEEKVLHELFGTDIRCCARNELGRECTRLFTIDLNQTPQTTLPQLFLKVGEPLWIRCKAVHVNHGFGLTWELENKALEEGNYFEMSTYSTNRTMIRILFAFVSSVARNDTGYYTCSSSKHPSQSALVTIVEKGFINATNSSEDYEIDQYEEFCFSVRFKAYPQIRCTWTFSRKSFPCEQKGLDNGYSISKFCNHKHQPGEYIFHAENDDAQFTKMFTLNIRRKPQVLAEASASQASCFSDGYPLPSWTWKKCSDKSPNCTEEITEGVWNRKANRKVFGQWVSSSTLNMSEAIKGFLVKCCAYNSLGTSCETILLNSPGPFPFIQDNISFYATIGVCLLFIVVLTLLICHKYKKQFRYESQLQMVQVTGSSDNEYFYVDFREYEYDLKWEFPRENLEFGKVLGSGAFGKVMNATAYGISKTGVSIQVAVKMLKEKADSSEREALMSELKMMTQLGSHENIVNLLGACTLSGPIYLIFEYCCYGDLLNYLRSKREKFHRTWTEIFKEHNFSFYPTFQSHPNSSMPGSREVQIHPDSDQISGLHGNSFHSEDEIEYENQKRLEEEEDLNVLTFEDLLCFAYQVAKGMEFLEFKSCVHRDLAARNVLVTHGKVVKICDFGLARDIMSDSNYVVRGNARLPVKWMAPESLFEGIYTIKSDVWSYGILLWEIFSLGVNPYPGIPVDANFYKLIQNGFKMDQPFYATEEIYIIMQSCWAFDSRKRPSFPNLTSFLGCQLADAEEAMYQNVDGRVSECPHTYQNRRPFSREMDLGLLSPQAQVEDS

[15] = biological target: T2, Serine/threonine-protein kinase Sgk3 (Homo sapiens) (UniProt Q96BR1)
T2 sequence (whole entry): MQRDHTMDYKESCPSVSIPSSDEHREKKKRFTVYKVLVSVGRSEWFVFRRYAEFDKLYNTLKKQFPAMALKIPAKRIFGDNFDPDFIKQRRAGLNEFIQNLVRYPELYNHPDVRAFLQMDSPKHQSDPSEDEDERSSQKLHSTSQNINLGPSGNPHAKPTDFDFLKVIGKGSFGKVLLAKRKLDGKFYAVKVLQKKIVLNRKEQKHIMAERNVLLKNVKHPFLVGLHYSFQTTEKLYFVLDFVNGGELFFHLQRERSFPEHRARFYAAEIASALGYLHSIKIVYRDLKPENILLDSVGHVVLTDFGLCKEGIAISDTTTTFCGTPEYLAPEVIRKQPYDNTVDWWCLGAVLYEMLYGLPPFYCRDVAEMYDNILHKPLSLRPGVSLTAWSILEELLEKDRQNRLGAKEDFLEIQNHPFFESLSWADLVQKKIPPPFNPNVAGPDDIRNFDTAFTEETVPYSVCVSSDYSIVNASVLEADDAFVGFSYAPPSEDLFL

[16] = biological target: PI3-kinase p110-delta/p85-alpha (Homo sapiens) (UniProt P27986+O00329)
[17] = biological target: Bone morphogenetic protein receptor type-1B (Homo sapiens) (UniProt O00238)
[18] = biological target: Mitogen-activated protein kinase 14 (Homo sapiens) (UniProt Q16539)
[19] = biological target: Glycogen synthase kinase-3 alpha (Homo sapiens) (UniProt P49840)
Chain of Glycogen synthase kinase-3 alpha (Homo sapiens) (P49840 2-483 limits assumed): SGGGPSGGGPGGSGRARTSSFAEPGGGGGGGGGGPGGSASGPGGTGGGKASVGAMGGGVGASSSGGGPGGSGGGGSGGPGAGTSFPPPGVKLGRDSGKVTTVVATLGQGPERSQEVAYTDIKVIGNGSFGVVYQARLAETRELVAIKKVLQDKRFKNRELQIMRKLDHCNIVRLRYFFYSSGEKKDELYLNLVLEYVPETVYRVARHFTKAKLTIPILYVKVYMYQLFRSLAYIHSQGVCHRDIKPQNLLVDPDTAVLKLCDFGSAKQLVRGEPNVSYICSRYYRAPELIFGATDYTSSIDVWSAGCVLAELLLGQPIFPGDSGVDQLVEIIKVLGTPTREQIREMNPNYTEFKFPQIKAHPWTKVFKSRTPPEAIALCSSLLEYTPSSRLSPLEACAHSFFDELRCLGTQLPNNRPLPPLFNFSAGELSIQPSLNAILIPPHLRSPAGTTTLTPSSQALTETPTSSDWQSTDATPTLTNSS

[20] = biological target: Activin receptor type-1-like (Homo sapiens) (UniProt P37023)
[21] = biological target: Phosphatidylinositol 4-phosphate 3-kinase C2 domain-containing subunit alpha (Homo sapiens) (UniProt O00443)
[22] = biological target: Tyrosine-protein kinase FRK (Homo sapiens) (UniProt P42685)
[23] = biological target: Transcription initiation factor TFIID subunit 1-like (Homo sapiens) (UniProt Q8IZX4)
[24] = biological target: Insulin receptor-related protein (Homo sapiens) (UniProt P14616)
[25] = biological target: Dual specificity protein kinase CLK1 (Homo sapiens) (UniProt P49759)
Chain of Dual specificity protein kinase CLK1 (Homo sapiens) (P49759 whole entry, looked up): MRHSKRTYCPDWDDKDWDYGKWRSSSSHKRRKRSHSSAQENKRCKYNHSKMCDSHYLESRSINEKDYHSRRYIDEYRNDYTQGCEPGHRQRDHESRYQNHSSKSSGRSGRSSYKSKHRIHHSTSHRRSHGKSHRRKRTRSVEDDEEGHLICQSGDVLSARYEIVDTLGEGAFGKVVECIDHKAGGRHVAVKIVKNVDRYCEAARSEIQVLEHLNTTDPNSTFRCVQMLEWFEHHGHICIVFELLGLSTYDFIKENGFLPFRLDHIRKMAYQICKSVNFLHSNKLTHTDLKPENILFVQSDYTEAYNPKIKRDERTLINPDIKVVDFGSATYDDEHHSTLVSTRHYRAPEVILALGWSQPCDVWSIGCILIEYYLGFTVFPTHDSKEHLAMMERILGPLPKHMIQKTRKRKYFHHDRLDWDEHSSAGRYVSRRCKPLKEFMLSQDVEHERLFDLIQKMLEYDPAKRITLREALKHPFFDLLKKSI

[26] = biological target: Serine/threonine-protein kinase B-raf (Homo sapiens) (UniProt P15056)
[27] = biological target: Ephrin type-A receptor 2 (Homo sapiens) (UniProt P29317)

Measured: % residual kinase activity

Chain of BDNF/NT-3 growth factors receptor (Homo sapiens) (Q16620 32-822 limits assumed): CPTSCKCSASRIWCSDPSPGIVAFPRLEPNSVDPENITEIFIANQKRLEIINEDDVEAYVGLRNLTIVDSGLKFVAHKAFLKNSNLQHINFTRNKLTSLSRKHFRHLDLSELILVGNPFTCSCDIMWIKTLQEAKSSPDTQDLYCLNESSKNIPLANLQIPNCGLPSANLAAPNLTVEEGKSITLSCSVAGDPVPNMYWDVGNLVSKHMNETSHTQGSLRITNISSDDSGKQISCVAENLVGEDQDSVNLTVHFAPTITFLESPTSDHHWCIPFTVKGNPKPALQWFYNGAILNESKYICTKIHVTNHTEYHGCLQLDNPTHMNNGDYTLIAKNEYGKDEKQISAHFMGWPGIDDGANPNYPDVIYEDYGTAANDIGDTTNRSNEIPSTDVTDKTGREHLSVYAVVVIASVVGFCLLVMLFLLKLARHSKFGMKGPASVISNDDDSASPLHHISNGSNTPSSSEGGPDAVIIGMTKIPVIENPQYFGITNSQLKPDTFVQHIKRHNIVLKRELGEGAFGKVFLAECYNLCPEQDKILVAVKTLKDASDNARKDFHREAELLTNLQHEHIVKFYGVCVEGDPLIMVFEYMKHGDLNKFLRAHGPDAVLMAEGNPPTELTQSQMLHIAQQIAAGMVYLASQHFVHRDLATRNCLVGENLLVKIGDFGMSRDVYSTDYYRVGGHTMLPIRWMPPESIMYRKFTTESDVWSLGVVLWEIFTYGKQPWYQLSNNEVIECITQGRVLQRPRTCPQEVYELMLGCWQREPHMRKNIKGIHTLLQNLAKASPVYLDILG
Chain of Testis-specific serine/threonine-protein kinase 2 (Homo sapiens) (Q96PF2 whole entry): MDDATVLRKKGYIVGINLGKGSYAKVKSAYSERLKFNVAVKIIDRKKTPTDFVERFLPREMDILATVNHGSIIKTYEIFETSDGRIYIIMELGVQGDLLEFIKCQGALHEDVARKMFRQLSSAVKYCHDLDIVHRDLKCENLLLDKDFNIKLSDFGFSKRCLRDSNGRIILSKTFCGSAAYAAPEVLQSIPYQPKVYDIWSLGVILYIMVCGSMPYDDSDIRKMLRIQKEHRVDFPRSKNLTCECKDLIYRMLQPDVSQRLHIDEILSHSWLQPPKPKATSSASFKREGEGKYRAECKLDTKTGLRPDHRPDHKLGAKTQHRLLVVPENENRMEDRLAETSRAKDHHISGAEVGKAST

CN1CCN(c2cnc3c(C4CCN(C(=O)c5ccc(OC(F)(F)F)cc5N)CC4)ncnc3c2)CC1 [BAY-885]
inactive: [1] 113% | [2] 98% | [3] 98% | [4] 57% | [5] 100% | [6] 115% | [7] 106% | [8] 112% | [9] 109% | [10] 94% | [11] 91% | [12] 107% | [13] 85% | [14] 100% | [15] 104% | [16] 102% | [17] 102% | [18] 113% | [19] 112% | [20] 118% | [21] 96% | [22] 109% | [23] 120% | [24] 111% | [25] 105% | [26] 109% | [27] 100%
